Source: US20090149536A1, “4-OXO-(ISO)TRETINOIN FOR THE TOPICAL TREATMENT OF SEVERE DERMATOLOGICAL DISORDERS” (priority 2005, published 2009)
Like-named read-outs stand apart in the source and are kept apart here.

Tests used:
[1] = test system: severe acne on back or chest; settings: 2 g cream, 0.5% 4-Oxotretinoin or up to 1% 4-Oxo-Isotretinoin, topical on back, 4 weeks minimum; Leeds grade 5 to 8
Description: Fifteen male patients aged between 18 and 65 with severe acne on back or chest rated a grade of 5 to 8 according to the Leeds revised acne grading system (Journal of Dermatological Treatment (1989) 9, 215-220) are enrolled in a pilot study.
After completion of the treatment, the grade of the acne in the designated treatment area is once more determined and compared with the surrounding area of the skin.

[2] = topical 1.5% 4-oxo-tretinoin or 2% 4-oxo-isotretinoin, n=5 per compound, serial samples
lipogenesis in epidermis = test: study of lipogenesis in skin biopsies (14C-Dextrose integrated in epidermis lipids); format: in vivo, Fuzzy rats
Method: At the end of the treatment, animals were anaesthetized with Pentobarbital 70 mg/kg by IP route. For each rat, two biopsies of 3-mm of dorsal skin per treated region with test substances were collected. Each biopsy was weighed. Rats were sacrificed by inhalation of CO2.
The biopsies (from 175 to 466 mg) were incubated in 1 ml of KRB in presence of 5 μCi D-[U-^14C]-Dextrose/ml at 37° C., 5% CO2 for 3 h.
After incubation, biopsies were rinsed 3 times with 3 ml of KRB. Dermis and epidermis were separated according to method described by Levang A. K. et al..
So, skin biopsies were soaked in water at 60° C. for 45 s. The skin was then removed and blotted dry and pinned with the dermal skin side down. The epidermis and dermis were separated by scrapping and epidermis was weighted.
Each fraction (100 mg) epidermis was cut into small fragments by using scalpels. Fragments were homogenized with chloroform:methanol [(2:1; v:v), Ref. C2432, batch No. 055K0070, Sigma, France: Ref M3641-1L, batch No. 104K3641, Sigma, France] according to the ratio 50 mg of tissue/ml of chloroform:methanol (2:1; v:v) with Potter-Elvehjem type of homogenizer (Ref. 48780, Dutscher, France).
Then, the mixture was washed with 0.2 volume of water. Two phases were separated by centrifugation during 20 min at 800 g.
The rate of lipid extraction was calculated as following: • R=(dpm[4-14C]Cholesterol after extraction)/dpm[4-14C]Cholesterol before extraction×100
The lipogenesis was evaluated as the number of dpm/100 mg tissue. • Lipogenesis=cpm×R×AS (D-[U-^14C]-Dextrose)
At the end of treatment (D25), rats were anaesthetized, skin biopsies were collected and lipogenesis was assessed. Briefly, biopsies were incubated with ^14C-Dextrose in Krebs-Ringer buffer for 3 h at 37° C., 5% CO2. After separation of dermis and epidermis, total lipids were extracted from epidermis. Radioactivity was counted using a β-counter.

sebum excretion rate = settings: cited from earlier work
sebaceous gland size = test: study of sebaceous gland size in skin biopsies (histology); format: in vivo, Fuzzy rats; settings: D25
Method: The other biopsies were transferred in fixative solution of 4% Paraformaldehyde Fixative (PAF; Ref. 1.04003.5000, Merck, France) solution for further paraffin-embedding and sebaceous gland size analysis.
The size of sebaceous gland was evaluated by histological study of biopsies.
Biopsies fixed in PAF 4% were paraffin-embedded by the ASP 300 (Leica) automat according to the following procedure:
Histological sections of biopsies were realized (5 sections/biopsy).
Each one was colored by Hemalun/Eosin/Safran OTTIX coloration method according to the following protocol:
A microscopic observation by using a CKX41 light microscope (Olympus, France) was performed. Each sebaceous gland within 1 section/biopsy was numerized with a digital camera (Pwershot A80, Canon) and was measured by using ImageJ software 1.32j.
Each sebaceous gland within 1 section/biopsy was numerized with a digital camera (Pwershot A80, Canon) and was measured by using ImageJ software 1.32j. The mean of gland size was calculated for each group.
At the end of treatment (D25; Oct. 13, 2006), rats were anaesthetized, skin biopsies were collected and embedded in paraffin before being stained by an hematoxylin/eosin solution. Biopsies were then observed and numerized by using a microscope. All sebaceous glands within a biopsy were measured.

[3] = in vivo
Description: Suitable dosages are described herein below and can be determined by a doctor based on usual parameters like e.g. the weight and age of the patient, and the current status of the disease.

skin [4] = test system: skin
Description: Observations and examinations included clinical monitoring of skin reaction and histopathological examination of excised skin specimen at study end.

hairless ("fuzzy") rats = settings: nontoxic dosages (no body weight loss), cited from earlier work
[5] = test system: sebaceous gland size and sebum production; settings: topical versus oral; cited from earlier work
skin [6] = settings: in human, applied topically as cream; cited from earlier work
[7] = test system: dermal lipogenese and sebum production; settings: topical; cited from earlier work
severe acne = settings: oral; cited from earlier work
hairless mice = settings: nontoxic dosages (no body weight loss); cited from earlier work
[8] = 0.1% topical, 0.025 mg/2 cm^2, (Q1DX5)×4 weeks, D25
[9] = 0.5% topical, 0.125 mg/2 cm^2, (Q1DX5)×4 weeks, D25
[10] = 0.1% topical, 0.025 mg/2 cm^2, (Q1DX5)×4 weeks
[11] = 0.2% topical, 0.050 mg/2 cm^2, (Q1DX5)×4 weeks, D25
[12] = 10 mg/kg PO, (Q1DX5)×4 weeks, D25

CC1=C(/C=C/C(C)=C/C=C/C(C)=C\C(=O)O)C(C)(C)CCC1=O [4-oxo-isotretinoin, 4-oxo-13-cis-retinoic acid]
clinical rating of the acne in the treated area compared with untreated skin [1]: reduces the clinical rating of the acne in the treated area significantly | inter-conversion of the 4-oxo isomers: skin and strip levels of both isomers [2]: skin exposure to both 4-oxo-isotretinoin and 4-oxo-tretinoin could be demonstrated | Mean DPM ± SD, Epidermis (100 mg) (lipogenesis in epidermis; [8]): 5499 ± 2599 DPM | Mean pmole 14C-dextrose ± SD integrated in 100 mg of tissue (epidermis) (lipogenesis in epidermis; [8]): 6.95±3.31 pmole of 14C-Dextrose/100 mg | lipogenesis in epidermis, percent of control group (lipogenesis in epidermis; [8]): 71% | Mean pmole 14C-dextrose ± SD integrated in 100 mg of tissue (epidermis) (lipogenesis in epidermis; 0.1% topical, 0.025 mg/2 cm^2, (Q1DX5)×4 weeks, D25, listed as 4-Oxo-isotretinoin): 6.95 ± 3.31 pmole of 14C-Dextrose/100 mg | Mean DPM ± SD, Epidermis (100 mg) (lipogenesis in epidermis; [9]): 6524 ± 1792 DPM | Mean pmole 14C-dextrose ± SD integrated in 100 mg of tissue (epidermis) (lipogenesis in epidermis; [9]): 8.25±2.28 pmole of 14C-Dextrose/100 mg | lipogenesis in epidermis, percent of control group (lipogenesis in epidermis; [9]): 84% | Mean pmole 14C-dextrose ± SD integrated in 100 mg of tissue (epidermis) (lipogenesis in epidermis; 0.5% topical, 0.125 mg/2 cm^2, (Q1DX5)×4 weeks, D25, listed as 4-Oxo-isotretinoin): 8.25 ± 2.28 pmole of 14C-Dextrose/100 mg | sebum excretion rate (sebum excretion rate; applied orally): reduces the sebum excretion rate | pharmacological activity relative to parent drug isotretinoin (sebum excretion rate; in vivo): only half as active pharmacologically | mean sebaceous gland size, Mean ± SD (sebaceous gland size; [10]): 24988±15931 pixel^2 | sebaceous gland size, percent of control group (sebaceous gland size; [10]): (82%) | mean sebaceous gland size, Mean ± SD (sebaceous gland size; 0.1% topical, 0.025 mg/2 cm^2, (Q1DX5)×4 weeks, listed as 4-Oxo-isotretinoin): 24998 ± 15931 pixel^2 | endogenous plasma level [3]: about 4.85±3.89 ng/mL | skin irritation (clinical monitoring of skin reaction) (skin [4]; any concentration (0.1, 0.5, 1 or 2%), once daily, 5 days per week, 4 weeks, acetone/ethanol (1:1)): No signs of skin irritation

CC1=C(/C=C/C(C)=C/C=C/C(C)=C/C(=O)O)C(C)(C)CCC1=O [4-oxo-tretinoin, 4-oxo-all-trans-retinoic acid]
clinical rating of the acne in the treated area compared with untreated skin [1]: reduces the clinical rating of the acne in the treated area significantly | inter-conversion of the 4-oxo isomers: skin and strip levels of both isomers [2]: skin exposure to both 4-oxo-isotretinoin and 4-oxo-tretinoin could be demonstrated | Mean DPM ± SD, Epidermis (100 mg) (lipogenesis in epidermis; [8]): 7024 ± 1970 DPM | Mean pmole 14C-dextrose ± SD integrated in 100 mg of tissue (epidermis) (lipogenesis in epidermis; [8]): 9.10±5.23 pmole of 14C-Dextrose/100 mg | lipogenesis in epidermis, percent of control group (lipogenesis in epidermis; [8]): 91% | Mean pmole 14C-dextrose ± SD integrated in 100 mg of tissue (epidermis) (lipogenesis in epidermis; 0.1% topical, 0.025 mg/2 cm^2, (Q1DX5)×4 weeks, D25, listed as 4-Oxo-tretinoin): 8.89 ± 2.51 pmole of 14C-Dextrose/100 mg | Mean DPM ± SD, Epidermis (100 mg) (lipogenesis in epidermis; [11]): 4993 ± 2219 DPM | Mean pmole 14C-dextrose ± SD integrated in 100 mg of tissue (epidermis) (lipogenesis in epidermis; [11]): 6.30±2.80 pmole of 14C-Dextrose/100 mg | lipogenesis in epidermis, percent of control group (lipogenesis in epidermis; [11]): 64% | Mean pmole 14C-dextrose ± SD integrated in 100 mg of tissue (epidermis) (lipogenesis in epidermis; 0.2% topical, 0.050 mg/2 cm^2, (Q1DX5)×4 weeks, D25, listed as 4-Oxo-tretinoin): 6.30 ± 2.80 pmole of 14C-Dextrose/100 mg | endogenous plasma level [3]: about 9.88±7.57 ng/mL | histopathological examination of treated skin areas (skin [4]; concentration-dependent, once daily, 5 days per week, 4 weeks): concentration-dependent hyperkeratosis, acanthosis and hypertrophy/hyperplasia of sebaceous glands | skin irritation (clinical: reddening (erythema) and occasional scaling) (skin [4]; concentrations ≧0.5% (tested 0.1 to 1.5%), once daily, 5 days per week, 4 weeks): dose-dependent slight to moderate skin irritation | histopathological examination of treated skin areas: necrosis (skin [4]; concentrations ≧1%): occasional necrosis

CC1=C(/C=C/C(C)=C/C=C/C(C)=C\C(=O)O)C(C)(C)CCC1 [13-cis-RA, 13-cis retinoic acid, reference compound]
sebosuppressive effect after topical administration (hairless ("fuzzy") rats; listed as 13-cis retinoic acid): no detectable sebosuppressive effects | sebosuppressive effect after topical administration (hairless ("fuzzy") rats; listed as 13-cis-retinoic acid): substantially no detectable sebosuppressive activity | reduction of effectiveness in reducing sebaceous gland size and suppressing sebum production, topical compared to oral administration [5]: up to 90% | Mean DPM ± SD, Epidermis (100 mg) (lipogenesis in epidermis; [12]): 5188 ± 1875 DPM | Mean pmole 14C-dextrose ± SD integrated in 100 mg of tissue (epidermis) (lipogenesis in epidermis; [12]): 6.55±2.38 pmole of 14C-Dextrose/100 mg | change of lipogenesis in epidermis versus vehicle group (lipogenesis in epidermis; 10 mg/kg PO, (Q1DX5)×4 weeks, p<0.05): −33% | activity at 10 mg/kg (lipogenesis in epidermis; Rattus norvegicus, 672 h, 10 mg/kg PO, (Q1DX5)×4 weeks, D25, read-out: lipogenesis in epidermis, percent of control group): 67% | strength of topical cream that showed local irritation (skin [6]): 0.1% | mean sebaceous gland size, Mean ± SD (sebaceous gland size; 10 mg/kg PO, (Q1DX5)×4 weeks): 25493±17065 pixel^2 | activity at 10 mg/kg (sebaceous gland size; Rattus norvegicus, 672 h, 10 mg/kg PO, (Q1DX5)×4 weeks, read-out: sebaceous gland size, percent of control group): 83.8% | influence on the dermal lipogenese and sebum production [7]: Neither topical tretinoin nor topical isotretinoin have been found to have an influence | patients with severe acne reaching long-term remission (severe acne): 80% | sebosuppressive effect after topical administration (hairless mice): no detectable sebosuppressive effects

CC1=C(/C=C/C(C)=C/C=C/C(C)=C/C(=O)O)C(C)(C)CCC1 [tretinoin, all-trans retinoic acid]
strength of topical cream that showed local irritation (skin [6]): 0.05% | influence on the dermal lipogenese and sebum production [7]: Neither topical tretinoin nor topical isotretinoin have been found to have an influence
